Results published in US6855730B2, “3-methylidenyl-2-indolinone modulators of protein kinase” (Sugen, Inc., priority 1998, dated 2005).

Columns and labels:
SKOV3 cells = experiment: SKOV3 growth assay (2% FBS); format: cell-based; settings: Homo sapiens, SK-OV-3, read-out: SKOV3 growth (2% FBS) IC50
[1] = biological target: T1, chimeric receptor having the extra-cellular domain of EGF-R and the intra-cellular domain of Her2 (Homo sapiens, UniProt P04626); experiment: EGF-induced Her2-driven BrdU incorporation; format: cell-based; settings: read-out: BrdU HER 2 driven IC50
T1 construct: fused on or other part: the same chimera
T1 sequence (P04626 676-1255 limits assumed, change not shown): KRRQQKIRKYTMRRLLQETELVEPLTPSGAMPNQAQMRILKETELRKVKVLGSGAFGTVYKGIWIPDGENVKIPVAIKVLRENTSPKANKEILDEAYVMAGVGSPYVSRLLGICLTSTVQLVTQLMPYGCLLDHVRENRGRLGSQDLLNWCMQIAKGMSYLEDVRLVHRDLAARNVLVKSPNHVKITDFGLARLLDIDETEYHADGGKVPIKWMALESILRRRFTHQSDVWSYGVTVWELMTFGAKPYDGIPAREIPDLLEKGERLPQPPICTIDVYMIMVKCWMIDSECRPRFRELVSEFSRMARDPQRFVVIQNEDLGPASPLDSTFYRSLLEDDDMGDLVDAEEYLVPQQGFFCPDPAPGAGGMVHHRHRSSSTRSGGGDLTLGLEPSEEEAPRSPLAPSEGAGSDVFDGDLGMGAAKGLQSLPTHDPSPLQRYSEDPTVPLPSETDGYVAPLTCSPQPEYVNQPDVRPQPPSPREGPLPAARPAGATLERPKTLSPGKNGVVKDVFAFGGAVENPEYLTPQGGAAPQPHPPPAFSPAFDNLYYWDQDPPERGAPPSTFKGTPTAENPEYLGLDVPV
Procedure: The cellular/catalytic assays described herein are performed in an ELISA format. The general procedure is as follows: a compound is introduced to cells expressing the test kinase, either naturally or recombinantly, for a selected period of time after which, if the test kinase is a receptor, a ligand known to activate the receptor is added. The cells are lysed and the lysate is transferred to the wells of an ELISA plate previously coated with a specific antibody recognizing the substrate of the enzymatic phosphorylation reaction. Non-substrate components of the cell lysate are washed away and the amount of phosphorylation on the substrate is detected with an antibody specifically recognizing phosphotyrosine compared with control cells that were not contacted with a test compound. The cellular/biologic assays described herein measure the amount of DNA made in response to activation of a test kinase, which is a general measure of a proliferative response. The general procedure for this assay is as follows: a compound is introduced to cells expressing the test kinase, either naturally or recombinantly, for a selected period of time after which, if the test kinase is a receptor, a ligand known to activate the receptor is added. After incubation at least overnight, a DNA labeling reagent such as Bromodeoxyuridine (BrdU) or 3H-thymidine is added. The amount of labeled DNA is detected with either an anti-BrdU antibody or by measuring radioactivity and is compared to control cells not contacted with a test compound.
EGF-Induced Her2-Driven BrdU Incorporation
Protocol • (1) Cells-are seeded at 8000 cells/well in DMEM, 10% CS, 2mM Gln in a 96-well plate. Cells are incubated overnight at 37° C. in 5% CO2. • (2) After 24 hours, the cells are washed with PBS, and then are serum starved in serum free medium (0% CS DMEM with 0.1% BSA) for 24 hours. • (3) On day 3, ligand (EGF=2 nM, prepared in DMEM with 0.1% BSA) and test compounds are added to the cells simultaneously. The negative control wells receive serum free DMEM with 0.1% BSA only, the positive control cells receive the ligand (EGF) but no test compound. Test compounds are prepared in serum free DMEM with ligand in a 96 well plate, and serially diluted for 7 test concentrations. • (4) After 20 hours of ligand activation, diluted BrdU labeling reagent (1:100 in DMEM, 0.1% BSA) is added and the cells are incubated with BrdU (final concentration=10 μM) for 1.5 hours. • (5) After incubation with labeling reagent, the medium is removed by decanting and tapping the inverted plate on a paper towel. FixDenat solution is added (50 μl/well) and the plates are incubated at room temperature for 45 minutes on a plate shaker. • (6) The FixDenat solution is thoroughly removed by decanting and tapping the inverted plate on a paper towel. Milk is added (5% dehydrated milk in PBS, 200 μ/well) as a blocking solution and the plate is incubated for 30 minutes at room temperature on a plate shaker. • (7) The blocking solution is removed by decanting and the wells are washed once with PBS. Anti-BrdU-POD solution (1:100 dilution in PBS, 1% BSA) is added (100 μl/well) and the plate is incubated for 90 minutes at room temperature on a plate shaker. • (8) The antibody conjugate is thoroughly removed by decanting and rinsing the wells 5 times with PBS, and the plate is dried by inverting and tapping on a paper towel. • (9) TMB substrate solution is added (100 μl/well) and incubated for 20 minutes at room temperature on a plate shaker until color development is sufficient for photometric detection. • (10) The absorbance of the samples are measured at 410 nm (in “dual wavelength” mode with a filter reading at 490 nm, as a reference wavelength) on a Dynatech ELISA plate reader.

SMILES	IC50 (SKOV3 cells)	IC50 [1]
COc1ccc(C=C2C(=O)Nc3cc(NC(C)=O)ccc32)cc1-c1cccc(NC(C)=O)c1 (mixture of isomers) [Example 63, N-[3-(3′-Acetylamino-6-methoxybiphenyl-3-ylmethylene)-2-oxo-2,3-dihydro-1H-indol-6-yl]-acetamide]	> 25 µM	20.4 µM
CC1(C)CCc2cc(C=C3C(=O)Nc4ccc(Br)cc43)ccc2O1 (racemic) [Example 34, 5-Bromo-3-(2,2-dimethylchroman-6-ylmethylene)-1,3-dihydroindol-2-one]	7.6 µM	3.5 µM
COc1c(C(C)C)cc(/C=C2/C(=O)Nc3cc(NC(C)=O)ccc32)cc1C(C)C [Example 3, N-[3-(3,5-Diisopropyl-4-methoxybenzylidene)-2-oxo-2,3-dihydro-1H-indol-6-yl]-acetamide]	2.6 µM	9.1 µM
COc1c(C(C)C)cc(/C=C2/C(=O)Nc3cc(O)ccc32)cc1C(C)C [Example 4, 3-(3,5-Diisopropyl-4-methoxybenzylidene)-6-hydroxy-1,3-dihydroindol-2-one]	7 µM	4.4 µM
COc1c(C(C)C)cc(/C=C2/C(=O)Nc3ccc(C(C)=O)cc32)cc1C(C)C [Example 5, 5-Acetyl-3-(3,5-diisopropyl-4-methoxybenzylidene)-1,3dihydroindol-2-one]	5.4 µM	10.5 µM
COC(=O)c1ccc2c(c1)/C(=C\c1cc(C(C)C)c(OC)c(C(C)C)c1)C(=O)N2 [Example 6, 3-(3,5-Diisopropyl-4-methoxybenzylidene)-2-oxo-2,3-dihydro-1H-indole-5-carboxylic acid methyl ester]	19.4 µM	4.7 µM
COc1ccc(/C=C2/C(=O)Nc3ccccc32)cc1C(C)C [Example 7, 3-(3-Isopropyl-4-methoxybenzylidene)-1,3-dihydroindol-2-one]	2.5 µM	16.5 µM
COc1cc(C)c(C=C2C(=O)Nc3ccccc32)cc1C(C)C [Example 8, 3-(5-Isopropyl-4-methoxy-2-methylbenzylidene)-1,3-dihydroindol-2-one]	0.96 µM	33.4 µM
COc1cc(C)c(C=C2C(=O)Nc3ccc(Cl)cc32)cc1C(C)C [Example 9, 5-Chloro-3-(5-isopropyl-4-methoxy-2-methylbenzylidene)-1,3-dihydroindol-2-one]	14.5 µM	4.5 µM
COc1ccc(/C=C2/C(=O)Nc3ccccc32)cc1C1CCCC1 [Example 10, 3-(3-Cyclopentyl-4-methoxybenzylidene)-1,3-dihydroindol-2-one]	11.2 µM	14.1 µM
COc1ccc(/C=C2/C(=O)Nc3ccc(F)cc32)cc1C1CCCC1 [Example 11, 3-(3-Cyclopentyl-4-methoxybenzylidene)-5-fluoro-1,3-dihydroindol-2-one]	15 µM	9.3 µM
COc1ccc(/C=C2/C(=O)Nc3ccccc32)cc1C1CCCCC1 [Example 12, 3-(3-Cyclohexyl-4-methoxybenzylidene)-1,3-dihydroindol-2-one]	10.1 µM	31.9 µM
COc1ccc(/C=C2/C(=O)Nc3ccc(Br)cc32)cc1-c1ccccc1 [Example 13, 5-Bromo-3-(6-methoxybiphenyl-3-ylmethylene)-1,3-dihydroindol-2-one]	21.3 µM	9 µM
CC1(C)CCc2cc(/C=C3/C(=O)Nc4ccc(Cl)cc43)ccc2O1 [Example 15, 5-Chloro-3-(2,2-dimethyl-chroman-6-ylmethylene)-1,3-dihydroindol-2-one]	7 µM	4.4 µM
CC(=O)Nc1ccc2c(c1)NC(=O)/C2=C/c1ccc(OCCN2CCOCC2)c(C2CCCCC2)c1 [Example 16, N-{3-[3-Cyclohexyl-4-(2-morpholin-4-ylethoxy)-benzylidene]-2-oxo-2,3-dihydro-1H-indol-6-yl}-acetamide]	5.9 µM	4.2 µM
COc1ccc2c(c1)/C(=C\c1cc(C(C)C)c(OC)c(C(C)C)c1)C(=O)N2 [Example 17, 3-(3,5-Diisopropyl-4-methoxybenzylidene)-5-methoxy-1,3-dihydroindol-2-one]	6.1 µM	5.5 µM
COc1ccc(/C=C2/C(=O)Nc3cc(NC(C)=O)ccc32)cc1-c1ccsc1 [Example 18, N-[3-(4-Methoxy-3-thiophene-3-ylbenzylidene)-2-oxo-2,3-dihydro-1H-indol-6-yl]-acetamide]	1 µM	> 50 µM
COc1c(C(C)C)cc(/C=C2/C(=O)Nc3ccc(C)cc32)cc1C(C)C [Example 19, 3-(3,5-Diisopropyl-4-methoxybenzylidene)-5-methyl-1,3-dihydroindol-2-one]	5.9 µM	3.3 µM
COc1c(C(C)C)cc(/C=C2/C(=O)Nc3ccc(N)cc32)cc1C(C)C [Example 20, 5-Amino-3-(3,5-diisopropyl-4-methoxy-benzylidene)-1,3-dihydroindol-2-one]	35.5 µM	15.7 µM
COc1c(C)cc(/C=C2/C(=O)Nc3ccc(Cl)cc32)cc1C [Example 21, 5-Chloro-3-(4-methoxy-3,5-dimethylbenzylidene)-1,3-dihydroindol-2-one]	13 µM	6.6 µM
CC1(C)CCc2cc(/C=C3/C(=O)Nc4ccc(F)cc43)ccc2O1 [Example 23, 3-(2,2-Dimethylchroman-6-ylmethylene)-5-fluoro-1,3-dihydroindol-2-one]	17.8 µM	27.1 µM
CC(C)c1cc(/C=C2/C(=O)Nc3ccc(Cl)cc32)cc(C(C)C)c1OCCN1CCOCC1 [Example 24, 5-chloro-3-[3,5-diisopropyl-4-(2-morpholin-4-ylethoxy)-benzylidene]-1,3-dihydroindol-2-one]	6.5 µM	7.1 µM
COc1ccc(/C=C2/C(=O)Nc3ccc(CCN4CCOCC4)cc32)cc1-c1ccsc1 [Example 26, 3-(4-Methoxy-3-thiophen-3-ylbenzylidene)-5-(2-morpholin-4-yl-ethyl)-1,3-dihydroindol-2-one]	5.4 µM	> 50 µM
COc1cc(C)c(C=C2C(=O)Nc3cc(NC(C)=O)ccc32)cc1C(C)C [Example 27, N-[3-(5-Isopropyl-4-methoxy-2-methyl-benzylidene)-2-oxo-2,3-dihydro-1H-indol-6-yl]-acetamide]	5.1 µM	23.4 µM
CC(=O)Nc1ccc2c(c1)NC(=O)/C2=C\c1ccc2c(c1)CCC(C)(C)O2 [Example 33, N-[3-(2,2-Dimethylchroman-6-ylmethylene)-2-oxo-2,3-dihydro-1H-indol-6-yl]-acetamide]	10.3 µM	–
COc1cc(C)c(/C=C2/C(=O)Nc3ncccc32)cc1C(C)C [Example 45, 3-(5-Isopropyl-4-methoxy-2-methylbenzylidene)-1,3-dihydro-pyrrolo[2,3-b]pyridin-2-one]	–	> 50 µM
CC(=O)Nc1ccc2c(c1)NC(=O)/C2=C/c1ccc(OCCN2CCOCC2)c(-c2ccsc2)c1 [Example 50, N-{3-[4-(2-Morpholin-4-ylethoxy)-3-thiophen-3-ylbenzylidene]-2-oxo-2,3-dihydro-1H-indol-6-yl}-acetamide]	–	31.1 µM
COc1ccc(/C=C2/C(=O)Nc3ccc(Cl)cc32)cc1C1CCCCC1 [Example 51, 5-Chloro-3-(3-cyclohexyl-4-methoxybenzylidene)-1,3-dihydroindol-2-one]	14.5 µM	–
COc1c(C)cc(/C=C2/C(=O)Nc3ncccc32)cc1C [Example 56, 3-(4-Methoxy-3,5-dimethylbenzylidene)-1,3-dihydropyrrolo[2,3-b]pyridin-2-one]	> 20 µM	–
